We go through 3 molecules from patent US20030211163A1, “Combination antiviral therapy” (priority 2002, published 2003).

Data set [1] in a line: Franz diffusion cell skin drug permeation through cadaver skin, 24 hour period, HPLC. In kind it is in vitro ADME. The note with it: for Flux: cadaver skin; for Skin Flux: Table 4 (examples). As for the experimental part:
As a way of measuring the skin drug permeation properties of the COX-2 inhibitors, a Franz diffusion cell was provided utilizing cadaver skin as the membrane and a 1% Tween 80 solution as the receptor phase. Frozen cadaver skin was thawed at room temperature and punched with a 20 mm puncher. The receptor compartment of the Franz diffusion cell was filled with 1% Tween 80 solution and the diffusion cells maintained at 32° C. A 6% polyethylene glycol-20-oleyl ether is also suitable as a receptor fluid. The skin was mounted on the receptor, covered with the cup and fastened by a clamp. The air bubbles were removed from the receptor fluid and it was allowed to equilibrate for 30 minutes. COX-2 pharmaceutical compositions, according to the present invention, were brought into contact with the cadaver skin and the amount of drug which permeated through the cadaver skin in a 24 hour period was determined by high performance liquid chromatography.

The nature of data set [2]: Solubility of the drug in vehicles (drug saturated solutions). In kind it is physicochemical.
Setting [3] is: Table 1, drug saturated solution, vehicle 70% EtOH, 32° C.
[4] abbreviates: Table 1, drug saturated solution, vehicle EtOH.
Setting [5] is: Table 6 (examples), Saturated Vb in 5% Pb, 67% EtOH.
Where [6] appears, read: Table 6 (examples), Saturated Cb in 5% Pb, 67% EtOH.

Each structure is given as a SMILES string. Values after ≈ are worked out from the molar mass of the structure shown. Read-outs that look alike come from different tables or passages of the source.

As to `Cc1onc(-c2ccccc2)c1-c1ccc(S(N)(=O)=O)cc1` [Valdecoxib, valdecoxib], the Flux was 12.8 μg/cm^2 · day in data set [1] (setting [3]), 1.44 μg/cm^2 · day in data set [1] (setting [4]) and 108 ± 16.7 μg/cm^2 · day in data set [1] (setting [5]). Besides, the “Skin Flux” value was 302 ± 48.9 μg/cm^2 · day in data set [1] (% w/w: water 30, ethanol 30, isopropanol 10, 1,3-butanediol 22, oleyl alcohol 5, thymol 3); 441 ± 160 μg/cm^2 · day in data set [1] (% w/w: water 30, ethanol 62, oleyl alcohol 5, thymol 3); 287 ± 23.9 μg/cm^2 · day in data set [1] (% w/w: water 33, ethanol 62, oleyl alcohol 5).

One may read the solubility as how much of the substance goes into solution per volume. For `CCC(=O)NS(=O)(=O)c1ccc(-c2c(-c3ccccc3)noc2C)cc1` [Parecoxib, parecoxib], the solubility in data set [2] (aqueous with cosolvent or surfactant or cyclodextrin, thermodynamic from solid) was determined as 386 mg/mL (≈ 1040 mM). Also, the Flux in data set [1] (setting [6]) was 74.7 ± 14.7 μg/cm^2 · day; in data set [1] (setting [5]), 64.1 ± 11.3 μg/cm^2 · day. In data set [1] (parecoxib used as permeation enhancer), the “Effect as permeation enhancer on transdermal delivery of selective COX-2 drugs across the skin” value is recorded as “increase the transdermal delivery”.

In the case of `Cc1ccc(-c2cc(C(F)(F)F)nn2-c2ccc(S(N)(=O)=O)cc2)cc1` [Celecoxib, celecoxib], the solubility in data set [2] (70% aqueous ethanol, aqueous with cosolvent or surfactant or cyclodextrin, thermodynamic from solid, Table 1, drug saturated solution, vehicle 70% EtOH, read-out: Solubility) came out at 15.2 mg/mL (≈ 39.9 mM); in data set [2] (Table 2, 70% aqueous ethanol solution) it was 15.2 mg/mL (≈ 39.9 mM); in data set [2] (ethanol, organic solvent or mixture, thermodynamic from solid, Table 1, drug saturated solution, vehicle EtOH, read-out: Solubility) it was 91.4 mg/mL (≈ 240 mM); in data set [2] (polyethylene glycol 400, organic solvent or mixture, thermodynamic from solid, Table 1, drug saturated solution, vehicle PEG 400, read-out: Solubility) it was 297 mg/mL (≈ 779 mM); in data set [2] (propylene glycol, organic solvent or mixture, thermodynamic from solid, Table 1, drug saturated solution, vehicle PG, read-out: Solubility) it was 33.3 mg/mL (≈ 87.3 mM). Also, the Flux was determined as 15.7 μg/cm^2 · day in data set [1] (setting [3]), 5.62 μg/cm^2 · day in data set [1] (setting [4]) and 183 ± 153 μg/cm^2 · day in data set [1] (setting [6]).
